US9051309B2, “3,5-disubstituted-1,3,4-oxadiazol-2(3H)-ones and compositions and methods for controlling nematode pests” (Monsanto Technology LLC, priority 2013, dated 2015)
Marks after values point to notes of the source that are not given here.

Experiments:
[1] = tested on: Meloidogyne incognita nematodes; test: Miniaturized greenhouse nematicidal efficacy assay on cucumber seedlings in sand vials (root gall rating); details: 500 M. incognita eggs, harvest 10 to 12 days after inoculation, average of triplicate ratings
Method: A miniaturized greenhouse assay was conducted to study the effects of several 3,5-disubstituted-1,3,4-oxadiazol-2(3H)-one compounds on Meloidogyne incognita nematodes.
Cucumber seeds were sprouted for 3 days in moist paper towels. Acceptable sprouts were 3 to 4 cm long, with several lateral roots just emerging.
Each test solution was evaluated in triplicate. Dry sand (10 mL) was added to each vial. Seedlings were planted by tilting the vial and laying the seedling in the correct orientation so that the cotyledons were just above the sand, and then tilting back to cover the radicles with sand. A sample of the test solution (3.3 mL) was then added to each vial, and the vials were placed in racks under fluorescent light banks. The vials were inoculated two days after planting by adding 500 vermiform M. incognita eggs to each vial in deionized or spring water (50 μL). The vials were then kept under the fluorescent lamps at ambient room temperature and watered as needed with deionized water (1 mL), usually twice during duration of test.
Harvest of the cucumber plants was performed 10 to 12 days after inoculation by washing sand off the roots. A root gall rating was assigned using the following Gall rating scale (Gall: % root mass galled): 0=0-5%; 1=6-20%; 2=21-50%; and 3=51-100%.
Comparative solutions comprising other commercially available nematicidal compounds were also evaluated as controls.

[2] = tested on: soybean cyst nematode (SCN); test: SCN greenhouse sand assay on soybean plants; format: in vivo; details: SCN eggs about four hours after application, rated 28 days after egg inoculation
Method: (§1) First, a concentrate was prepared by dissolving 2 milligrams of the test compound in 2 mL of an acetone solvent. Test solutions were then prepared by combining an appropriate amount of the concentrate with an aqueous surfactant solution comprising TRITON X100 (0.05%).
A similar experiment was conducted with regard to control of soybean cyst nematode (SCN) on soybean plants. Soybean seeds were planted in a media consisting of 80% sand and 20% silt loam soil (v/v) in two inch square plastic pots. […] Approximately four hours after application of the nematicidal test solution, the nematode soybean cyst nematode (SCN) eggs were applied using the procedure described above. The soybean plants were rated for root galling 28 days after the egg inoculation.

root knot nematode (RKN) [3] = test: Seed treatment on cucumber for RKN control; format: in vivo; details: 1000 root knot eggs five days after planting, galling rated 14 days after inoculation, versus untreated blank
Method: The excess of 30% by weight of test compound was added for each treatment that would equal 130% of the desired rate to assure target seed loading. The test compound (the amount as described in Table 3A below) and surfactant (optional) were dissolved in 3 mL acetone. AGRIMER VA-6 inert polymer was added at a concentration of 15% of the total test compound weight. Seeds were placed in the drum of the batch lab treater. The drum was rotated. The solutions of test compositions as described above were pipette onto seeds. The drum continued to rotate until the seed were dry.
3 inch by 3 inch plastic pots were filled with a media consisting of 80% sand and 20% silt loam soil (v/v). Treated cucumber seeds were planted ½ inch below the soil surface. Pots were watered as needed. Five days after planting the cucumber plants had the first true leaf emerging and each pot was inoculated with 1000 vermiform root knot eggs. The cucumber plants were rated for root galling 14 days after inoculation. The gall ratings were scored on a scale of 0-100 where, 0=no galls and 100=completely galled. Percent control was determined by comparison to the blank (untreated).

root knot nematode (RKN) [4] = test: RKN greenhouse soil assay on cucumber plants (7 day longevity test); format: in vivo; details: inoculated 7 days after application, root galling rated 14 days after egg inoculation, galling reduction relative to control blank
Method: as §1
Cucumber seeds were planted in a sandy soil mixture in two inch square plastic pots. When the cotyledons were fully opened and just as the first leaf began to emerge, usually 7 days after planting, a nematicidal test solution was applied to each pot. Five milliliters of the appropriate chemical solution was pipetted to the media surface, making sure to avoid contact with the base of the plant. Immediately following chemical application, using a mist nozzle, the pot surface was wetted sufficiently to saturate the pot, effectively watering the test solution into the soil.
Seven days following application of the test solution, each pot was inoculated with root knot nematode (RKN) eggs. A nematode egg slurry was prepared by adding RKN nematode eggs to distilled water to create a concentration of 1000 vermiform eggs […] of water. […]
The cucumber plants were rated for root galling 14 days after the egg inoculation. […] A commercially available nematicide, fenamiphos, was also evaluated for comparison.

[5] = 40 ppm, scale 0=0-5%, 1=6-20%, 2=21-50%, 3=51-100% root mass galled

Compound | gall ratings ([1]; 1 ppm, scale 0-3) | gall ratings ([1]; 8 ppm, scale 0-3) | gall ratings [1, 5] | other results
O=c1oc(-c2ccco2)nn1-c1ccc(Cl)cc1 [Formula Ia-v, 3-(4-chlorophenyl)-5-(furan-2-yl)-1,3,4-oxadiazol-2(3H)-one] | 1.67 | 1.00 | 0.33 | 
CNC(=O)O/N=C(\SC)C(=O)N(C)C [Oxamyl, reference compound] |  |  |  | Percent Control ([2]; application rate 0.1 kg/ha): 59^a Percent; Percent Control ([2]; application rate 0.25 kg/ha): 79^a Percent
O=c1oc(-c2cccs2)nn1-c1ccc(F)cc1 [Formula Ia-iv, 3-(4-fluorophenyl)-5-(thiophen-2-yl)-1,3,4-oxadiazol-2(3H)-one] | 3.00 | 2.00 | 1.33 | 
O=c1oc(-c2ccc(Cl)cc2)nn1-c1cccs1 [Formula IIa-iv, 5-(4-chlorophenyl)-3-(thiophen-2-yl)-1,3,4-oxadiazol-2(3H)-one] | 3.00 | 1.67 | 1.00 | 
O=c1oc(-n2cccc2)nn1-c1ccccc1 [Formula Ic-i, 3-phenyl-5-(1H-pyrrol-1-yl)-1,3,4-oxadiazol-2(3H)-one] |  | 0.33 | 0.00 | 
O=c1oc(-n2cccc2)nn1-c1ccc(Cl)cc1 [Formula Ic-ii, 3-(4-chlorophenyl)-5-(1H-pyrrol-1-yl)-1,3,4-oxadiazol-2(3H)-one] | 2.33 | 1.67 | 1.00 | 
O=c1oc(-c2ccco2)nn1-c1ccccc1 [Formula Ia-ii, 5-(furan-2-yl)-3-phenyl-1,3,4-oxadiazol-2(3H)-one] | 3.00 | 1.33 | 0.00 | 
O=c1oc(-c2cccs2)nn1-c1ccccc1 [Formula Ia-i, 3-phenyl-5-(thiophen-2-yl)-1,3,4-oxadiazol-2(3H)-one] |  | 2.00 | 1.00 | 
Abamectin [reference compound] | 1.67^b |  |  | Percent Control (root knot nematode (RKN) [3]; seed treatment 0.2 mg a.i./seed): 37^a Percent
O=c1oc(-c2cccs2)nn1-c1ccc(Cl)cc1 [Formula Ia-iii, 3-(4-chlorophenyl)-5-(thiophen-2-yl)-1,3,4-oxadiazol-2(3H)-one] | 0.00 | 0.33 | 0.00 | Percent Control ([2]; application rate 0.1 kg/ha): 29^a Percent; Percent Control ([2]; application rate 0.25 kg/ha): 56^a Percent; Percent Control (root knot nematode (RKN) [3]; seed treatment 0.1 mg a.i./seed): 12^b Percent; Percent Control (root knot nematode (RKN) [3]; seed treatment 0.25 mg a.i./seed): 25^b Percent; Percent Control (root knot nematode (RKN) [3]; seed treatment 0.5 mg a.i./seed): 62^a Percent; Percent Control (root knot nematode (RKN) [4]; application rate 0.1 kg/ha): 63^a Percent; Percent Control (root knot nematode (RKN) [4]; application rate 0.25 kg/ha): 70^a Percent
